Values quoted from earlier work in US20160074480A1, “INNOVATIVE METHODS OF TREATMENTING TUBERCULOSIS” (priority 2015, published 2016).

Tested on: TB bacteria
Settings: laboratory dishes, including strains resistant to available anti-tuberculosis drug; cited from earlier work

O=C1O[C@H]([C@@H](O)CO)C(O)=C1O [Vitamin C, L-ascorbic acid]
killing of TB bacteria: killed TB bacteria
